Here are results for 1 compound from US20260317706A1, “COMPOSITION FOR INDUCING STEM CELLS TO DIFFERENTIATE INTO ASTROCYTES, CONTAINING CPI-455” (CHUNG ANG UNIVERSITY INDUSTRY ACADEMIC COOPERATION …, priority 2023, published 2026).

What all share (type): cell-based, Sprague-Dawley rat
The test system of one series is gfap mRNA. Nature of the series: RT-qPCR of gfap mRNA in differentiating neural stem cells. As to conditions: 50 μM, 3 days without EGF and FGF2, vs 0.1% DMSO, FIG. 1B. As to the method: (§1) Neural stem cells (NSCs) were cultured and harvested as previously reported (Faseb J 2018, 32 (2), 1108-1119). Specifically, the cells were harvested by dissecting the cerebral cortex from embryos of 14-day pregnant Sprague-Dawley rats (Orient Bio, Seongnam, South Korea). The cells were incubated for 6 days at 37° C. in 5% CO2 in Dulbecco's modified Eagle's medium (DMEM/F12) (Cat no. 12500-062, Gibco, Grand Island, NY, U.S.A.) containing Ham's nutrient mixture F-12 supplemented with 1% antibiotic-antimycotic (Cat no. 15240-062, Gibco), 2% B-27 supplement (Cat no. 17504-044, Gibco), 20 ng/ml EGF (Cat no. GF144, Chemicon, Burlington, MA, U.S.A.), and 20 ng/ml FGF2 (Cat no. GF003AF, Chemicon), so as to form neurospheres. The neurospheres were then dissociated into single cells using Accutase (Cat No. SCR005, Sigma-Aldrich, St. Louis, MO, U.S.A.). The cells were then attached to culture plates for one day in medium enriched with EGF and FGF2. […]
(§2) RNA was extracted using TRIzol® reagent (Cat no. 15596018, Thermo Fisher, Waltham, MA, U.S.A.) and dissolved in diethylpyrocarbonate-treated water (Cat no. C-9030, Bioneer, Daejeon, South Korea). Complementary DNA (cDNA) was synthesized from 1 μg of RNA per sample using a QuantiTect reverse transcriptase kit (Cat no. 205311, Qiagen, Hilden, Germany). […]
In general terms: In qPCR the cycle at which signal appears reflects the starting amount.

For another series, the system named is TUBB3. Nature of the series: Western blot of TUBB3 in differentiating neural stem cells. The following applies: NSCs without EGF and FGF2, 4 days, vs 0.1% DMSO, FIG. 1A. As to the method:
as §1
(§3) Chemiluminescence was detected on CP-BU new film (Agfa, Mortsel, Belgium) using western blotting luminol reagent (Cat no. sc-2048, Santa Cruz Biotechnology). Band intensity was quantified using ImageJ version 2.3.0. GAPDH (Glyceraldehyde-3-phosphate dehydrogenase) was measured as a housekeeping protein. […]
A general note: In western blotting, separated proteins are transferred to a membrane and probed.

A further series has as its system OLIG2. As to the kind of experiment: Western blot of OLIG2 in differentiating neural stem cells. The following applies: NSCs without EGF and FGF2, 4 days, vs 0.1% DMSO, FIG. 1A. As to the method: as §1, §3
The next series concerns STAT3. As to the kind of experiment: Western blot of STAT3 expression and phosphorylation in neural stem cells. As to conditions: 50 μM, 4 days, FIG. 3A. As to the method: as §1
Chemiluminescence was detected on CP-BU new film (Agfa, Mortsel, Belgium) using western blotting luminol reagent (Cat no. sc-2048, Santa Cruz Biotechnology). Band intensity was quantified using ImageJ version 2.3.0. GAPDH (Glyceraldehyde-3-phosphate dehydrogenase) was measured as a housekeeping protein.

A further series has as its system lif mRNA. Nature of the series: RT-qPCR of lif mRNA in neural stem cells. The following applies: 3 days, CPI-455-induced astrocytogenesis. As to the method:
as §1, §2

A further series has as its system bmp2 mRNA. As to the kind of experiment: RT-qPCR of il-6, lif, cntf and bmp2 mRNA in neural stem cells. The following applies: 3 days, FIG. 3B. As to the method:
as §1, §2

The test system of another series is neural stem cells (NSCs). Nature of the series: Immunocytochemistry (ICC) of differentiating neural stem cells. As to the method: Neural stem cells (NSCs) were cultured and harvested as previously reported (Faseb J 2018, 32 (2), 1108-1119). Specifically, the cells were harvested by dissecting the cerebral cortex from embryos of 14-day pregnant Sprague-Dawley rats (Orient Bio, Seongnam, South Korea). The cells were incubated for 6 days at 37° C. in 5% CO2 in Dulbecco's modified Eagle's medium (DMEM/F12) (Cat no. 12500-062, Gibco, Grand Island, NY, U.S.A.) containing Ham's nutrient mixture F-12 supplemented with 1% antibiotic-antimycotic (Cat no. 15240-062, Gibco), 2% B-27 supplement (Cat no. 17504-044, Gibco), 20 ng/ml EGF (Cat no. GF144, Chemicon, Burlington, MA, U.S.A.), and 20 ng/ml FGF2 (Cat no. GF003AF, Chemicon), so as to form neurospheres. The neurospheres were then dissociated into single cells using Accutase (Cat No. SCR005, Sigma-Aldrich, St. Louis, MO, U.S.A.). The cells were then attached to culture plates for one day in medium enriched with EGF and FGF2. Next, the NSCs were treated with DMEM/F12 medium containing 1% antibiotic-antimycotic, 2% B-27 supplement, and either DMSO (Cat no. 472301, Sigma-Aldrich) or various concentrations of CPI-455 (Cat no. HY-100421, Medchemexpress, Princeton, NJ, U.S.A.) dissolved in DMSO. The medium was replaced every 2 days. Cells for western blot and immunostaining were cultured for 4 days after treatment with CPI-455. Cells for RT-qPCR and ChIP-qPCR were cultured for 3 days after treatment with CPI-455.
Immunocytochemistry was performed as previously reported (Faseb J 2018, 32 (2), 1108-1119). Specifically, the cells were fixed in 4% paraformaldehyde solution (Cat no. P231, Biosesang, Seongnam, South Korea) for 30 minutes. The cells were blocked with 5% goat serum (Cat no. S26, Millipore) diluted in 0.2% Triton X-100 (Cat no. 0694-1L, VWR International, Radnor, PA, U.S.A.).
The cells were stained for 1 hour with the following primary antibodies: TUBB3 (1:1000; Cat no. T5076, Sigma-Aldrich) and GFAP (1:500; Cat no. Z0334, Dako, Santa Clara, CA, U.S.A.). Next, the following secondary antibodies were applied for 30 minutes: Alexa488 goat anti-mouse IgG (1:1000; Cat no. A21131, Invitrogen, Waltham, MA, U.S.A.) and Cy3 goat anti-rabbit IgG (1:1000; Cat no. 111-165-144, Jackson, West Grove, PA, U.S.A.).
The nuclei were stained by treating the cells with 0.01% DAPI (4′,6-diamidino-2-phenylindole) (Cat No. D9542, Sigma-Aldrich) in PBS solution for 5 minutes. Fluorescent images were captured using a Leica DM IL inverse fluorescent microscope and LAS X software (Leica, Wetzlar, Germany).
NSCs proliferate in the presence of an epidermal growth factor (EGF) and […] growth factor-2 (FGF2), and in the absence of growth factors in a medium, NSCs differentiate into neurons and astrocytes. […]

The next series deals with GFAP. Nature of the series: Western blot of TUBB3, GFAP and OLIG2 in differentiating neural stem cells. The following applies: NSCs without EGF and FGF2, 4 days, vs 0.1% DMSO, FIG. 1A. As to the method:
as §1, §3

Setting [1] is: 50 μM, 4 days without EGF and FGF2, vs 0.1% DMSO, FIGS. 2A and 2B.

For the compound `CC(C)c1c(-c2ccccc2)[nH]c2c(C#N)cnn2c1=O` [CPI-455, 4,7-dihydro-6-(1-methylethyl)-7-oxo-5-phenyl-pyrazolo[1,5-a]pyrimidine-3-carbonitrile], the “gfap mRNA expression compared to the control” value with gfap mRNA is recorded as “significantly increased”. For the same compound, the TUBB3 protein expression result in the series with TUBB3 is given as “no significant change”. In addition, the OLIG2 protein expression result with OLIG2 is listed as “no significant change”. In addition, the “phosphorylated STAT3 (pSTAT3) with respect to total STAT3” value in the series on STAT3 was “significantly increased”. Further, the lif expression entry in the series with lif mRNA is listed as “without an increase”. In addition, the “bmp2 mRNA expression” value with bmp2 mRNA (50 μM) is listed as “significantly increased”. Moreover, the “bmp2 mRNA among the investigated cytokines (il-6, lif, cntf, bmp2)” value in the series with bmp2 mRNA (comparison with il-6, lif, cntf) is recorded as “only cytokine mRNA that showed a significant increase”. Also, in the series with neural stem cells (NSCs) (setting [1]), the “number of GFAP-positive cells” value is “significantly increased” and the “percentage of TUBB3-positive cells” value was “did not show any significant difference”. For the same compound, the “number of DAPI-positive cells” value in the series on neural stem cells (NSCs) (4 days without EGF and FGF2, vs 0.1% DMSO) is “No significant difference”. Besides, the “cytotoxicity during NSC differentiation” value in the series on neural stem cells (NSCs) (4 days, inferred from DAPI-positive cell number) is given as “not inducing cytotoxicity”. Moreover, the “GFAP protein expression compared to the control” value with GFAP was “significantly increased”.
